These results are taken from patent US8802686B2, “Sulfone-substituted anilinopyrimidine derivatives as CDK inhibitors, the production thereof, and use as a medicine” (Bayer Intellectual Property GmbH, priority 2008, dated 2014).

One data set addresses CDK2/CycE (Homo sapiens (Human), UniProt P24941). Briefly: CDK2/CycE kinase assay (Assay 2). It is filed as biochemical. Particulars: read-out: CDK2/CycE (Assay 2) Concentration of the half-maximal inhibition of the enzyme activity, IC50.
The subject of data set [1] is HeLa-MaTu-ADR (HeLa-MaTu-MDR, multiple drug-resistant human cervix carcinoma cells). Briefly: Proliferation assay (Assay 5), HeLa-MaTu-ADR. It counts as cell-based. The settings on record: 96 h, read-out: Concentration of the half-maximal inhibition of the cell proliferation, IC50. The source says: (§1) Cultivated human tumour cells (MCF7, hormone-independent human breast carcinoma cells, acquired from ATCC HTB22; NCI-H460, human non-small-cell lung carcinoma cells, ATCC HTB-177; DU 145, hormone-independent human prostrate carcinoma cells, ATCC HTB-81; HeLa-MaTu, human cervix carcinoma cells, EPO-GmbH, Berlin; HeLa-MaTu-MDR, multiple drug-resistant human cervix carcinoma cells, EPO-GmbH, Berlin; Caco-2, human colon carcinoma cells, ATCC HTB-37; B16F10, murine melanoma cell, ATCC CRL-6475) were plated out at a density of ca. 1000-5000 cells/measuring point, depending on the growth rate of the particular cells, in a 96-well multititre plate in 200 μl of the corresponding growth medium. After 24 hours, the cells of one plate (zero-point plate) were stained with crystal violet (see below), whereas the medium of the other plates was replaced with fresh culture medium (200 μl), to which the test substances had been added at different concentrations (0 μM, and in the range 0.003-3 μM; the final concentration of the solvent dimethyl sulphoxide was 0.5%). The cells were incubated for 4 days in the presence of the test substances. Cell proliferation was determined by staining the cells with crystal violet: the cells were fixed by adding 20 μl/measuring point of an 11% glutaraldehyde solution for 15 min at room temperature. After washing the fixed cells with water three times, the plates were dried at room temperature. The cells were stained by adding 100 μl/measuring point of a 0.1% crystal violet solution (pH adjusted to pH 3 by adding acetic acid). After washing the stained cells with water three times, the plates were dried at room temperature. The dye was dissolved by adding 100 μl/measuring point of a 10% acetic acid solution. The extinction was determined photometrically at a wavelength of 595 nm. […] The IC50 values were determined by means of a 4-parameter fit using the company's own software.

A further data set concerns the target CDK1/CycB (Homo sapiens (Human), UniProt P06493). Briefly: CDK1/CycB kinase assay (Assay 1). It is filed as biochemical. The settings on record: read-out: CDK1/CycB (Assay 1) Concentration of the half-maximal inhibition of the enzyme activity, IC50.
Data set [2] concerns DU 145, hormone-independent human prostrate carcinoma cells. Briefly: Proliferation assay (Assay 5), DU145. It is filed as cell-based. Particulars: DU-145, 96 h, read-out: Concentration of the half-maximal inhibition of the cell proliferation, IC50.
From the text: as §1

For a further data set, the target named is CDK4/CycD1 (Homo sapiens (Human), UniProt P11802). Nature of the data set: CDK4/CycD kinase assay (Assay 3). It is filed as biochemical. The settings on record: read-out: CDK4/CycD (Assay 3) Concentration of the half-maximal inhibition of the enzyme activity, IC50. The procedure:
Recombinant CDK4 and CycD1-GST fusion proteins, purified from baculovirus-infected insect cells (Sf9), were purchased from ProQinase GmbH, Freiburg. CDK4/CycD1 (250 ng/measuring point) was incubated for 3 hours at 22° C. in the presence of different concentrations of test substances (0 μM, and within the range 0.001-10 μM) in 31 μl of assay buffer [50 mM Hepes pH 7.0; 2.5 mM MnCl; 0.05 mM Na ortho-vanadate; 1.0 mM dithiothreitol; 0.25 μM adenosine trisphosphate (ATP); 0.5 μM biotinylated myelin basic protein (bio-MPB, GE Healthcare); 0.05 μCi/measuring point ^33P-gamma ATP; 0.005% NP40; 0.025% bovine serum albumin; 3% dimethyl sulphoxide]. The reaction was stopped by adding 50 μl of stop-mix [100 μM ATP; 10 mM EDTA pH 8.0; 0.2% Triton X100; 0.125 mg of streptavidin-SPA Beads (GE Healthcare)]. After incubation for 10 min at room temperature, the SPA beads were pelleted by centrifugation (10 min; 1500 g). The amount of incorporated ^33P (substrate phosphorylation) was determined by scintillation measurement in a beta-radiation measuring instrument (Microbeta, Perkin Elmer).

Data set [3] deals with NCI-H460, human non-small-cell lung carcinoma cells. Briefly: Proliferation assay (Assay 5), NCI-H460. It is filed as cell-based. The settings on record: read-out: Concentration of the half-maximal inhibition of the cell proliferation, IC50.
From the text: as §1

Data set [4] concerns HeLa-MaTu, human cervix carcinoma cells. Nature of the data set: Proliferation assay (Assay 5), HeLa-MaTu. It counts as cell-based. Particulars: 96 h, read-out: Concentration of the half-maximal inhibition of the cell proliferation, IC50.
From the text: as §1

In data set [5] the test system is Caco-2, human colon carcinoma cells. Nature of the data set: Proliferation assay (Assay 5), Caco-2. It counts as cell-based. The settings on record: read-out: Concentration of the half-maximal inhibition of the cell proliferation, IC50.
From the text: as §1

The subject of data set [6] is B16F10, murine melanoma cell. Briefly: Proliferation assay (Assay 5), B16F10. It counts as cell-based. The settings on record: Mus musculus, B16-F10, 96 h, read-out: Concentration of the half-maximal inhibition of the cell proliferation, IC50.
From the text: as §1

In data set [7] the test system is MCF7, hormone-independent human breast carcinoma cells. Nature of the data set: Proliferation assay (Assay 5), MCF7. It is filed as cell-based. Particulars: read-out: Concentration of the half-maximal inhibition of the cell proliferation, IC50.
From the text: as §1

Another data set relates to Caco-2 monolayer. Particulars: reference substance, cited from earlier work.
Data set [8] can be described thus: Permeability assay (Assay 6), Caco-2 monolayer. The settings on record: human; for efflux ratio at 90 min: Caco-2, read-out: ratio (b-a)/(a-b); for Papp A→B at 90 min / Papp B→A at 90 min: Caco-2, 90 min, 37° C.; for Papp A→B at 90 min: read-out: Permeation coefficient, Papp apical-basolateral (a-b); for Papp B→A at 90 min: read-out: Permeation coefficient, Papp basolateral-apical (b-a). It is filed as in vitro ADME. How it is done:
The Caco-2 monolayer is a barrier between 2 compartments. The cells here behave similarly to the small intestine cells. Active ingredients can be transported either paracellularly or transcellularly. Here, the transport takes place in most cases from apical (luminal) to basolateral (serosal). In the case of p-glycoprotein substrates, back-transport from basolateral to apical is also usually observed.
Experimental procedure: The permeability test is carried out both from apical to basolateral and also from basolateral to apical. For this, two filters are used per substance; incubation takes place over 90 min at 37° C. in a water bath. […] As reference substances, (i) PEG 4000 are used as hydrophilic marker. On account of its high molecular weight, it is unable to permeate into the cell membrane or into the pores of the tight junctions. PEG 4000 is therefore a marker of the intactness of the cell monolayer and the narrowness of the tight junctions. PEG 4000 is not absorbed in humans. (ii) Clonidine is known as completely absorbed substances in people (100%). They serve as markers for very highly permeable substances with Papp values above 100 nm/s. (iii) Digoxin is a known Pgp substrate. […] In the reverse experiment (basolateral to apical), the Papp values should be higher by a factor of about 10 as a result of the active directional transport into the apical compartment.
The permeation coefficient Papp is used to estimate the absorption in people according to the following scheme: […]
(Caco-2 cells form a polarised layer with tight junctions and transporters.)

For data set [9], the target named is VEGF receptor tyrosine kinase-2 (VEGF-R2) (Homo sapiens (Human), UniProt P35968). Nature of the data set: VEGF receptor-2 kinase assay (Assay 4). Particulars: read-out: VEGF-R2 (Assay 4) Concentration of the half-maximal inhibition of the enzyme activity, IC50. It is filed as biochemical.
Description: Recombinant VEGF receptor tyrosine kinase-2 was purified as GST fusion protein from baculovirus-infected insect cells (Sf9). Poly-(Glu4Tyr), which was used as kinase substrate, was purchased from Sigma.
VEGF receptor tyrosine kinase (90 ng/measuring point) was incubated for 10 min at 22° C. in the presence of different concentrations of test substances (0 μM, and within the range 0.001-10 μM) in 30 μl of assay buffer [40 mM Tris/HCl pH 5.5; 10 mM MgCl2; 1 mM MnCl2; 3 μM Na ortho-vanadate; 1.0 mM dithiothreitol; 8 μM adenosine trisphosphate (ATP); 0.96 μg/measuring point poly-(Glu4Tyr); 0.2 μCi/measuring point ^33P-gamma ATP; 1.4% dimethyl sulphoxide]. The reaction was stopped by adding EDTA solution (250 mM; pH 8.0; 15 μl/measuring point).
(§2) From each reaction mixture, 15 μl were applied to P30 filter strips (Wallac), and unincorporated ^33P-ATP was removed by washing the filter strips three times, for 10 min in each case, in 0.5% phosphoric acid. After drying the filter strips for 1 hour at 70° C., the filter strips were covered with scintillator strips (MeltiLex™ A, Wallac) and stoved for 1 hour at 90° C. The amount of incorporated ^33P (substrate phosphorylation) was determined by scintillation measurement in a gamma-radiation measuring instrument (Wallac). […] The IC50 values were determined by means of a 4-parameter fit using the company's own software.
The conditions of data set [10]: reference substance; cited from earlier work.

Each structure is given as a SMILES string. pIC50: −log10 of the molar value. Read-outs that look alike come from different tables or passages of the source.

Sequence of CDK1/CycB (P06493 whole entry): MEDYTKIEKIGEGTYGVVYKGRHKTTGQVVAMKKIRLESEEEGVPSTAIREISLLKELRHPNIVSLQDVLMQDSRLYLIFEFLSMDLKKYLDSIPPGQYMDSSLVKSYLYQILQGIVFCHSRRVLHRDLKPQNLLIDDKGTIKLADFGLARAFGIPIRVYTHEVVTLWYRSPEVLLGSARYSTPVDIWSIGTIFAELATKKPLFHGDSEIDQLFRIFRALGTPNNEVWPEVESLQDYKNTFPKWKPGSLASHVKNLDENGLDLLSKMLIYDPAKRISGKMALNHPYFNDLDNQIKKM
Sequence of CDK1/CycB (P14635 whole entry partner): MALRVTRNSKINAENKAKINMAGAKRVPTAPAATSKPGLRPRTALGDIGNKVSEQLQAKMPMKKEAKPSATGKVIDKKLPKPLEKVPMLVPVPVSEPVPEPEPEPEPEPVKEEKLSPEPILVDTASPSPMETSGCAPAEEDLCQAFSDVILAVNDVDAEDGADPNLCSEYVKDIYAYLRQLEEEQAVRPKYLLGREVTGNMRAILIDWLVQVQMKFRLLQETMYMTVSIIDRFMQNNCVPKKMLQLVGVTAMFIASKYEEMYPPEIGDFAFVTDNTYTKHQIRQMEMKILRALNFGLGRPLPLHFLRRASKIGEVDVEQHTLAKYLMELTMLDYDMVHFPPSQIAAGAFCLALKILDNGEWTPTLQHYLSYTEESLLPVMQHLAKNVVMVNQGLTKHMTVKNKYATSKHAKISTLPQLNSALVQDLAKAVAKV
Sequence of CDK4/CycD1 (P11802 whole entry, the tested form may be a part): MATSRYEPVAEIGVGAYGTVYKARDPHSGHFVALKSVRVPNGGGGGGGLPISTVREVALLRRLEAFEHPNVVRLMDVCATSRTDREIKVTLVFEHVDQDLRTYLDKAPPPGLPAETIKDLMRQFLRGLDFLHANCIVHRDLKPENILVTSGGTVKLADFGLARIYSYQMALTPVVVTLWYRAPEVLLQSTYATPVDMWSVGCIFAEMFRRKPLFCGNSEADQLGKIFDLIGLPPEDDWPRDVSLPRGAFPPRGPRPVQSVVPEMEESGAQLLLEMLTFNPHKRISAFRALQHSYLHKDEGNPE
Sequence of CDK4/CycD1 (P24385 whole entry partner, the tested form may be a part): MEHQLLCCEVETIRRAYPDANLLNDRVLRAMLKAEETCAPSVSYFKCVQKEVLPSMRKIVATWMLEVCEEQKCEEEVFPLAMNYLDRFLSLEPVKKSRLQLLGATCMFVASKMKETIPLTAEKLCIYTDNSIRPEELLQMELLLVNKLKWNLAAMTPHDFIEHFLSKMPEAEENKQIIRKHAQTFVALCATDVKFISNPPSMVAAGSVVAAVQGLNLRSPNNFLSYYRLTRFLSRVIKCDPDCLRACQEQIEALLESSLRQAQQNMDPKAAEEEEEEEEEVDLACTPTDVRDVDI
Sequence of VEGF receptor tyrosine kinase-2 (VEGF-R2) (P35968 20-1356, species assumed): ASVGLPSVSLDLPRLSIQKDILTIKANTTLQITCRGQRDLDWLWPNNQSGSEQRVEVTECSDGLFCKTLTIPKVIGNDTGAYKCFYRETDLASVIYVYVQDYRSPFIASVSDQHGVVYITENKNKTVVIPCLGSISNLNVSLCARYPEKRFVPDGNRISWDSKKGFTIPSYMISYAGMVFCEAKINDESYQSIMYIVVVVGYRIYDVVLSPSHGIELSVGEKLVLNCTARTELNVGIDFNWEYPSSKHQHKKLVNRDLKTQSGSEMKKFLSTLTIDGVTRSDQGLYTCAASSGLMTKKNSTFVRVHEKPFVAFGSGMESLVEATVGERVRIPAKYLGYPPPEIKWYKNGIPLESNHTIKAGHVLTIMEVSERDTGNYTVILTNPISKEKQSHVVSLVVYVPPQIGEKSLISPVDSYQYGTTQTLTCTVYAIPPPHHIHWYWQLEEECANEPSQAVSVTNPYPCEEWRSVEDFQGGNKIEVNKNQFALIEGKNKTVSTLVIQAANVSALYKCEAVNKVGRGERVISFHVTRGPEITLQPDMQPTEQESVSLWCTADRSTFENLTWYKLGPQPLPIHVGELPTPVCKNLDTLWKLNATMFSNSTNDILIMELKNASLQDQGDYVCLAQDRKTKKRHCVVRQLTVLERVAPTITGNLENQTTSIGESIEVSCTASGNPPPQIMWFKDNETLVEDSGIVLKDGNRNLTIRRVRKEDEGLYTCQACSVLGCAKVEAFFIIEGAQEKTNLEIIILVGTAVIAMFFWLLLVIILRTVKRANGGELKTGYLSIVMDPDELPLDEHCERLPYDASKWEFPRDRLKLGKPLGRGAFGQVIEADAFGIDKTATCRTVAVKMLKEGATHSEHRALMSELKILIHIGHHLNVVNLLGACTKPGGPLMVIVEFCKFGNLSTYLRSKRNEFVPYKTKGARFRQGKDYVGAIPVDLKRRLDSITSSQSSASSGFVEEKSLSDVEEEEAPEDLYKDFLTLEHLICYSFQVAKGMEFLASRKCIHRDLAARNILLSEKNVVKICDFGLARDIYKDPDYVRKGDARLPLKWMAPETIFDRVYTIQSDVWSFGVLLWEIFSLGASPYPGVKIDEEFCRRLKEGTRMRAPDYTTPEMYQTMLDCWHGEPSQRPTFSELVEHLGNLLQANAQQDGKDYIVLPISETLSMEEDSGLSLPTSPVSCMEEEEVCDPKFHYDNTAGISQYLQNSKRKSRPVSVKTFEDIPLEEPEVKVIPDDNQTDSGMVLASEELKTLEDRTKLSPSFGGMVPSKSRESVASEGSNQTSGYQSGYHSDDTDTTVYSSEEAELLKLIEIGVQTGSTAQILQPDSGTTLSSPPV
Description for CDK1/CycB: CDK1/CycB (200 ng/measuring point) was incubated for 10 min at 22° C. in the presence of different concentrations of test substances (0 and within the range 0.001-10 μM) in assay buffer [50 mM Tris/HCl pH 8.0; 10 mM MgCl2; 0.1 mM Na ortho-vanadate; 1.0 mM dithiothreitol; 0.5 μM adenosine trisphosphate (ATP); 10 μg/measuring point histone IIIS; 0.2 μCi/measuring point ^33P-gamma ATP; 0.05% NP40; 1.25% dimethyl sulphoxide]. The reaction was stopped by adding EDTA solution (250 mM; pH 8.0; 15 μl/measuring point).
From each reaction mixture, 15 μl were applied to P30 filter strips (Wallac), and unincorporated ^33P-ATP was removed by washing the filter strips three times, for 10 min in each case, in 0.5% phosphoric acid. After drying the filter strips for 1 hour at 70°, the filter strips were covered with scintillator strips (MeltiLex™ A, Wallac) and stoved for 1 hour at 90° C. The amount of incorporated ^33P (substrate phosphorylation) was determined by scintillation measurement in a gamma-radiation measuring instrument (Wallac). […] The IC50 values were determined by means of a 4-parameter fit using the company's own software.
Description for CDK2/CycE: Recombinant CDK2 and CycE-GST fusion proteins, purified from baculovirus-infected insect cells (Sf9), were purchased from ProQinase GmbH, Freiburg. Histone IIIS, which was used as kinase substrate, was purchased from Sigma.
CDK2/CycE (50 mg/measuring point) was incubated for 10 min at 22° C. in the presence of different concentrations of test substances (0 μM, and within the range 0.001-10 μM) in assay buffer [50 mM Tris/HCl pH 8.0; 10 mM MgCl2; 0.1 mM Na ortho-vanadate; 1.0 mM dithiothreitol; 0.5 μM adenosine trisphosphate (ATP); 10 μg/measuring point histone IIIS; 0.2 μCi/measuring point ^33P-gamma ATP; 0.05% NP40; 1.25% dimethyl sulphoxide]. The reaction was stopped by adding EDTA solution (250 mM; pH 8.0; 15 μl/measuring point).
as §2

In the case of `C[C@@H](Oc1nc(Nc2ccc(S(C)(=O)=O)cc2)ncc1C(F)(F)F)C(C)(C)O` [Example 3, (R)-3-[2-(4-Methanesulphonylphenylamino)-5-trifluoromethylpyrimidin-4-yloxy]-2-methylbutan-2-ol], the pIC50 at CDK2/CycE is 7.92; in data set [1] (HeLa-MaTu-ADR, 4 days), 7.41; on CDK1/CycB it was 7.49; in [2] (DU145, 4 days), 7.13; on CDK4/CycD1, 7.11; in data set [3] (96 h, NCI-H460, 4 days), 6.85. Besides, the pIC50 is 7.46 in data set [4] (HeLa-MaTu, 4 days); 6.74 in data set [5] (96 h, Caco-2, 4 days); 6.57 in data set [6] (B16F10, 4 days); 6.80 in data set [7] (96 h, MCF7, 4 days).
For the compound `C[C@H]1O[C@@H](O[C@H]2[C@@H](O)C[C@H](O[C@H]3[C@@H](O)C[C@H](O[C@H]4CC[C@@]5(C)[C@H](CC[C@@H]6[C@@H]5C[C@@H](O)[C@]5(C)[C@@H](C7=CC(=O)OC7)CC[C@]65O)C4)O[C@@H]3C)O[C@@H]2C)C[C@H](O)[C@@H]1O` [Digoxin], in the data set with Caco-2 monolayer (Pgp substrate), the “permeability from apical to basolateral” value is “low permeability”.
As usually defined, the Papp A→B is the apparent permeability from the apical to the basolateral side of a cell layer. One may read the Papp B→A as how fast a substance crosses the layer from the basolateral side. Turning to `C[C@@H](O)[C@@H](C)Nc1nc(Nc2ccc(S(C)(=O)=O)cc2)ncc1C(F)(F)F` [C2, (2R,3R)-3-[2-(4-Methanesulphonylphenylamino)-5-trifluoromethylpyrimidin-4-ylamino]butan-2-ol, reference compound], the pIC50 at CDK2/CycE is 8.40; in [1] (HeLa-MaTu-ADR, 4 days), 7.49; on CDK1/CycB it was 8.40; in data set [2] (DU145, 4 days), 7.12; on CDK4/CycD1, 7.46; in [3] (96 h, NCI-H460, 4 days) it was 7.47. Further, the pIC50 in [5] (96 h, Caco-2, 4 days) was 7.12; in data set [9], 7.04; in data set [6] (B16F10, 4 days) it was 7.05; in data set [7] (96 h, MCF7, 4 days), 7.37. The efflux ratio at 90 min in [8] came to 1. Also, the Papp A→B at 90 min in data set [8] amounted to 18 ×10⁻⁶ cm/s. The Papp B→A at 90 min in data set [8] worked out at 17.8 ×10⁻⁶ cm/s.
For `Clc1cccc(Cl)c1N=C1NCCN1` [Clonidine], the “Papp values of reference marker” value in the data set on Caco-2 monolayer is on record as “above 100 nm/s”. In addition, the absorbed in people in data set [10] is on record as 100%.
Take `C[C@@H](O)[C@@H](C)Oc1nc(Nc2ccc(S(=O)(=O)C3CC3)cc2)ncc1C(F)(F)F` [Example 1, (2R,3R)-3-[2-(4-Cyclopropanesulphonylphenylamino)-5-trifluoromethylpyrimidin-4-yloxy]butan-2-ol]: the pIC50 at CDK2/CycE was 7.80; in data set [1] (HeLa-MaTu-ADR, 4 days), 8.05; at CDK1/CycB, 7.80; in data set [2] (DU145, 4 days), 7.77; at CDK4/CycD1, 7.70; in [3] (96 h, NCI-H460, 4 days), 7.39. In addition, the pIC50 in data set [4] (HeLa-MaTu, 4 days) was 7.96; in data set [5] (96 h, Caco-2, 4 days) it was 7.35; in data set [6] (B16F10, 4 days), 7.31; in [7] (96 h, MCF7, 4 days), 7.64. Further, the efflux ratio at 90 min in [8] is 0.9. Further, the Papp A→B at 90 min in data set [8] came out at 16.5 ×10⁻⁶ cm/s. Moreover, the Papp B→A at 90 min in data set [8] came to 14.7 ×10⁻⁶ cm/s.
`C[C@@H](O)[C@@H](C)Nc1nc(Nc2ccc(S(=O)(=O)C3CC3)cc2)ncc1C(F)(F)F` [C1, (2R,3R)-3-[2-(4-Cyclopropanesulphonylphenylamino)-5-trifluoromethylpyrimidin-4-ylamino]butan-2-ol, reference compound]: the pIC50 on CDK2/CycE is 8.22; in [1] (HeLa-MaTu-ADR, 4 days), 7.59; at CDK1/CycB, 8.10; in data set [2] (DU145, 4 days), 7.34; on CDK4/CycD1 it was 7.28; in data set [3] (96 h, NCI-H460, 4 days), 7.43. For the same compound, the pIC50 is 7.20 in [5] (96 h, Caco-2, 4 days); 7.29 in data set [9]; 7.11 in data set [6] (B16F10, 4 days); 7.19 in data set [7] (96 h, MCF7, 4 days). In data set [8], the efflux ratio at 90 min amounted to 0.8. Also, the apical-to-basolateral permeability (Papp A→B) at 90 min in [8] amounted to 20.7 ×10⁻⁶ cm/s. In addition, the basolateral-to-apical permeability (Papp B→A) at 90 min in data set [8] was found to be 17.4 ×10⁻⁶ cm/s.
Take `C[C@@H](O)[C@@H](C)Oc1nc(Nc2ccc(S(C)(=O)=O)cc2)ncc1C(F)(F)F` [Example 2, (2R,3R)-3-[2-(4-Methanesulphonylphenylamino)-5-trifluoromethylpyrimidin-4-yloxy]butan-2-ol]: the pIC50 is 7.85 in data set [1]; 7.47 in [2]; 7.62 on CDK4/CycD1; 7.42 in [3] (NCI-H460, 96 h); 7.85 in data set [4]; 7.18 in data set [5] (Caco-2, 96 h). For the same compound, the pIC50 in data set [6] is 7.15; in data set [7] (MCF7, 96 h) it was 7.46. Besides, the Papp A→B at 90 min in data set [8] is 19.6 ×10⁻⁶ cm/s. Moreover, the Papp B→A at 90 min in data set [8] came out at 19.4 ×10⁻⁶ cm/s.
